In brackets after ≈: the same amount, converted by molar mass.
What was measured:
[1] = Kinetic solubility of the compound at pH 7.4 after 2 hrs by shake flask method-based HPLC-DAD analysis; assay type: physicochemical; conditions: buffer, read-out: Kinetic_solubility
[2] = tested on: Mycobacterium tuberculosis; assay: Antimycobacterial activity against Mycobacterium tuberculosis H37Rv in 7H9/ADC/Tween medium measured at day 14 by Alamar Blue assay; assay type: functional; conditions: 336 h
[3] = tested on: Mycobacterium tuberculosis; assay: Antimycobacterial activity against Mycobacterium tuberculosis H37Rv in GAST medium with low Fe level measured at day 14 by Alamar Blue assay; assay type: functional; conditions: 336 h
[4] = Metabolic stability in mouse liver microsomes assessed as compound remaining at 0.1 uM measured at 30 mins by LC-MS/MS analysis; assay type: ADME; conditions: read-out: Stability
[5] = Metabolic stability in rat liver microsomes assessed as compound remaining at 0.1 uM measured at 30 mins by LC-MS/MS analysis; assay type: ADME; conditions: read-out: Stability
CHO = assay: Cytotoxicity against CHO cells assessed as cell viability by MTT assay; assay type: cell-based; conditions: Cricetulus griseus
[6] = Metabolic stability in human liver microsomes assessed as compound remaining at 0.1 uM measured at 30 mins by LC-MS/MS analysis; assay type: ADME; conditions: read-out: Stability
[7] = tested on: Mycobacterium tuberculosis; assay: Antimycobacterial activity against Mycobacterium tuberculosis H37Rv in GAST-Fe medium measured at day 14 by Alamar Blue assay; assay type: functional; conditions: 336 h

Compound	solubility kinetic at 2 h [1] [µM]	MIC99 [2] [µM]	other results
Cc1cc(NCc2ccccn2)n2ncc(-c3ccc(Cl)cc3)c2n1	< 5	10 (≈ 3.5 µg/mL)	–
Cc1cc(NCc2ccccn2)n2ncc(-c3ccccc3)c2n1	< 5	10 (≈ 3.15 µg/mL)	–
Cc1cc(NCc2ccccn2)n2nc(C)c(-c3ccccc3)c2n1	< 5	5 (≈ 1.65 µg/mL)	MIC99 [3]: > 160 µM; remaining at 0.5 h, 0.1 µM [4]: 6.2%; remaining at 0.5 h, 0.1 µM [5]: 39%; IC50 (CHO): 34 µM; remaining at 0.5 h, 0.1 µM [6]: 51.9%; MIC99 [7]: > 160 µM
Cc1cc(NCc2ccccn2)n2ncc(-c3ccc(F)cc3)c2n1	< 5	5 (≈ 1.67 µg/mL)	–
Cc1cc(NCc2cccnc2)n2nc(C)c(-c3ccccc3)c2n1	110 (≈ 36.3 µg/mL)	> 160	–
Cc1cc(NCc2ccncc2)n2nc(C)c(-c3ccccc3)c2n1	134 (≈ 44 µg/mL)	> 160	–
Cc1cc(NCc2ncccn2)n2nc(C)c(-c3ccccc3)c2n1	37.9 (≈ 12.5 µg/mL)	80 (≈ 26.4 µg/mL)	–
Cc1cc(NCc2cnccn2)n2nc(C)c(-c3ccccc3)c2n1	7.1 (≈ 2.35 µg/mL)	80 (≈ 26.4 µg/mL)	–
Cc1cc(NCCc2ccccn2)n2nc(C)c(-c3ccccc3)c2n1	< 5	> 160	–
Cc1cc(NCCCc2ccccn2)n2nc(C)c(-c3ccccc3)c2n1	5.9 (≈ 2.11 µg/mL)	80 (≈ 28.6 µg/mL)	–
Cc1cc(Nc2ccccn2)n2nc(C)c(-c3ccccc3)c2n1	< 5	> 160	–
Cc1cc(N(C)Cc2ccccn2)n2nc(C)c(-c3ccccc3)c2n1	17.5 (≈ 6.01 µg/mL)	> 160	–
Cc1cc(OCc2ccccn2)n2nc(C)c(-c3ccccc3)c2n1	25.6 (≈ 8.46 µg/mL)	> 160	–
Cc1cc(NCc2nccn2C)n2nc(C)c(-c3ccccc3)c2n1	26.9 (≈ 8.94 µg/mL)	5 (≈ 1.66 µg/mL)	MIC99 [3]: 20 µM (≈ 6.65 µg/mL); IC50 (CHO): < 9 µM; MIC99 [7]: 37 µM (≈ 12.3 µg/mL)
Cc1cc(NCc2ncc[nH]2)n2nc(C)c(-c3ccccc3)c2n1	< 5	37 (≈ 11.8 µg/mL)	–
Cc1cc(NCc2c[nH]cn2)n2nc(C)c(-c3ccccc3)c2n1	14.6 (≈ 4.65 µg/mL)	> 160	–
Cc1cccc(CNc2cc(C)nc3c(-c4ccccc4)c(C)nn23)n1	< 5	> 160	–
Cc1cc(NCc2ccco2)n2nc(C)c(-c3ccccc3)c2n1	< 5	> 160	–
Cc1cc(NCc2cccs2)n2nc(C)c(-c3ccccc3)c2n1	< 5	> 160	–
Cc1cc(NCc2nccs2)n2nc(C)c(-c3ccccc3)c2n1	108 (≈ 36.1 µg/mL)	> 160	–
Cc1cc(NCc2ccc3ccccc3n2)n2nc(C)c(-c3ccccc3)c2n1	< 5	> 160	–
Cc1cc(NCc2ccccn2)n2nc(C)c(-c3ccc(F)cc3)c2n1	< 5	5 (≈ 1.74 µg/mL)	–
COc1ccc(-c2c(C)nn3c(NCc4ccccn4)cc(C)nc23)cc1	< 5	20 (≈ 7.19 µg/mL)	–
COc1ccc(-c2cnn3c(NCc4ccccn4)cc(C)nc23)cc1	< 5	20 (≈ 6.91 µg/mL)	–
Cc1ccc(-c2cnn3c(NCc4ccccn4)cc(C)nc23)cc1	< 5	5 (≈ 1.65 µg/mL)	–
Cc1cc(NCc2ccccn2)n2ncc(-c3ccc(N(C)C)cc3)c2n1	< 5	20 (≈ 7.17 µg/mL)	–
Cc1cc(NCc2ccccn2)n2ncc(-c3ccc(C(F)(F)F)cc3)c2n1	< 5	> 160	–
Cc1cc(NCc2ccccn2)n2ncc(-c3ccc(C#N)cc3)c2n1	< 5	> 160	–
Cc1cc(NCc2ccccn2)n2ncc(-c3cccc(Cl)c3)c2n1	< 5	2.5 (≈ 0.875 µg/mL)	MIC99 [3]: > 160 µM; IC50 (CHO): 3.78 µM; MIC99 [7]: > 160 µM
Cc1cc(NCc2ccccn2)n2ncc(-c3cccc(F)c3)c2n1	5 (≈ 1.67 µg/mL)	2.5 (≈ 0.833 µg/mL)	–

Source: ChEMBL document CHEMBL3627697, “Aminopyrazolo[1,5-a]pyrimidines as potential inhibitors of Mycobacterium tuberculosis: Structure activity relationships and ADME characterization” (Bioorg Med Chem, 2015)
